Tests used:
citrate synthase (CS) = molecular target: T1, citrate synthase (CS) (Sus scrofa, UniProt P00889); test: Ellman's reagent at […] nm, inhibition of malyl-CoA thioesterase; assay type: biochemical; conditions: read-out: % inhibition at highest concentration (100 μM)
T1 construct: commercial native enzyme from porcine heart
T1 sequence (P00889 28-464): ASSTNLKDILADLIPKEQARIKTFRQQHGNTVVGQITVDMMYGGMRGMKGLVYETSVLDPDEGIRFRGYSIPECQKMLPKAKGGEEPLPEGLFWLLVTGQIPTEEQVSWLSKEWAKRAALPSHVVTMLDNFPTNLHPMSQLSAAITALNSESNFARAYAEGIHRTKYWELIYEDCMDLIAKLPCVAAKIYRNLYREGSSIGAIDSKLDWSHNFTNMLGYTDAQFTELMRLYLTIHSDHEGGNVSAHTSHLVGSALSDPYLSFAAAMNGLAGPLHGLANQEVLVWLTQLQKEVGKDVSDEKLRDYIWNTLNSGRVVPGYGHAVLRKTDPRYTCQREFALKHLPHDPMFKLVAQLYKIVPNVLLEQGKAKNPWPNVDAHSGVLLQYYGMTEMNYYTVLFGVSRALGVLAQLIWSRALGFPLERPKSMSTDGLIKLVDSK

[1] = molecular target: T2, methylmalonyl-CoA mutase (MCM) (Homo sapiens, UniProt P22033); test: absorbance spectrum of loaded enzyme; assay type: binding; conditions: 12.5 μM MCM homodimer, 5 μM adenosylcobalamin, pH 7.5, 30 °C
T2 construct: gene MMUT
T2 sequence (P22033 34-750): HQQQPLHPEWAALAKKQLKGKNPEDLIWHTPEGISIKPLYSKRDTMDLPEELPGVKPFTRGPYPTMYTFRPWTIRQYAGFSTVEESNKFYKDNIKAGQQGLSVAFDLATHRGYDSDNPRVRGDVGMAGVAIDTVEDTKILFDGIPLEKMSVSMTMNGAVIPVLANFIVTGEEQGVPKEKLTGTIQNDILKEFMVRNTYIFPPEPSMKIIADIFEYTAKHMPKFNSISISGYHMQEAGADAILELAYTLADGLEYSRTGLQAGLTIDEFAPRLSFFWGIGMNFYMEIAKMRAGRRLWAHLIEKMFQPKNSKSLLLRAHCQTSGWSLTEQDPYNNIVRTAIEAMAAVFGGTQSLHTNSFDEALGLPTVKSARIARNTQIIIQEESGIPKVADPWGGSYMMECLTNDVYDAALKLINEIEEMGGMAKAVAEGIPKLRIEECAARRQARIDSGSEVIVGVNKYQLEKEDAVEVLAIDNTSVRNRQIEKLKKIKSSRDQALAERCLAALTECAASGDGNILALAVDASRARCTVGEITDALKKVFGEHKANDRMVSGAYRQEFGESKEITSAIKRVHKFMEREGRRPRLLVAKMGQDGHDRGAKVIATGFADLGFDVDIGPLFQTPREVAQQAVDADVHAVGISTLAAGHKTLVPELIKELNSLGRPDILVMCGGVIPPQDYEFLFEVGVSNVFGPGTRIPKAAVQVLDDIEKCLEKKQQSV

CLYBL = molecular target: T3, CLYBL (Homo sapiens, UniProt Q8N0X4, I241V); test: Ellman's reagent at […] nm (thioesterase); assay type: biochemical; conditions: pH 7.5, 37 °C, 2 mM MgCl2
T3 construct: full-length ORF (340 aa precursor), natural variant Ile241Val, C-terminal Myc-DKK (FLAG) tag, expressed in HEK293FT, anti-FLAG purified
T3 sequence (Q8N0X4 23-340 I241V): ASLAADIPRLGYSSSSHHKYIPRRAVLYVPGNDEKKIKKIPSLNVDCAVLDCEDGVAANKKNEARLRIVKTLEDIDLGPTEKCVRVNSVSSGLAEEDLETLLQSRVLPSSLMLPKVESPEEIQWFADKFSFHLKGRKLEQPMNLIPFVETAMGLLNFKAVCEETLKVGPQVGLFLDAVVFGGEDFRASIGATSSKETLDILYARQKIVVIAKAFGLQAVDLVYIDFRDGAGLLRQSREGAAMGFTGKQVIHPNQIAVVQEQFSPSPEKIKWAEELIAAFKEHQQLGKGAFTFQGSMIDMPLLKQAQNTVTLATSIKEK

[2] = molecular target: T2, methylmalonyl-CoA mutase (MCM); test: succinyl-CoA formation by LC-HRMS/MS; assay type: biochemical; conditions: read-out: % residual activity at 50 μM
[3] = molecular target: T4, SUCL (GDP-forming), SUCLG1:SUCLG2 complex (Homo sapiens, UniProt P53597+Q96I99); test: PK/LDH-coupled NADH consumption; assay type: biochemical; conditions: 0.6 mM GTP, 0.1 mM CoA, 7 mM MgCl2, pH 7.5, 30 °C
T4 construct: SUCLG1 aa 28-333 with N-terminal His6, SUCLG2 aa 38-420 with C-terminal His6, co-expressed in E. coli, tags kept
From the text: PK/LDH-coupled NADH consumption on SUCL (GDP-forming), SUCLG1:SUCLG2 complex

[4] = molecular target: T5, SUCL (ADP-forming), SUCLG1:SUCLA2 complex (Homo sapiens, UniProt P53597+Q9P2R7); test: PK/LDH-coupled NADH consumption; assay type: biochemical; conditions: 0.6 mM ATP, 0.1 mM CoA, 7 mM MgCl2, pH 7.5, 30 °C
T5 construct: SUCLG1 aa 28-333 with N-terminal His6, SUCLA2 aa 53-463 with C-terminal His6, co-expressed in E. coli, tags kept
From the text: PK/LDH-coupled NADH consumption on SUCL (ADP-forming), SUCLG1:SUCLA2 complex

[5] = molecular target: T2, methylmalonyl-CoA mutase (MCM); test: succinyl-CoA formation by LC-HRMS/MS; assay type: biochemical; conditions: 10 min preincubation, 0.24 μM adenosylcobalamin, 65 μM methylmalonyl-CoA, pH 7.5, 30 °C; coenzyme inactivation to cob(II)alamin; itaconyl-CoA 27% pure, concentrations corrected

T5 sequence (P53597 28-333): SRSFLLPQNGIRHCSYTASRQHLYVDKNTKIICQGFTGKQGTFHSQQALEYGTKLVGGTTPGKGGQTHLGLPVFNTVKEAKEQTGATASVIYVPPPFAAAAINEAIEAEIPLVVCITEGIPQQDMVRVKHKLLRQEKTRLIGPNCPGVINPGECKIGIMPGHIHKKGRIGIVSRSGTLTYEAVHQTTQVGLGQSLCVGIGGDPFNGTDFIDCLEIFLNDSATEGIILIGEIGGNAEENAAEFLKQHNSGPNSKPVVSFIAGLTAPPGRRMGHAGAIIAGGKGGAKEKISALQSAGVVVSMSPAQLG
T5 sequence (Q9P2R7 53-463): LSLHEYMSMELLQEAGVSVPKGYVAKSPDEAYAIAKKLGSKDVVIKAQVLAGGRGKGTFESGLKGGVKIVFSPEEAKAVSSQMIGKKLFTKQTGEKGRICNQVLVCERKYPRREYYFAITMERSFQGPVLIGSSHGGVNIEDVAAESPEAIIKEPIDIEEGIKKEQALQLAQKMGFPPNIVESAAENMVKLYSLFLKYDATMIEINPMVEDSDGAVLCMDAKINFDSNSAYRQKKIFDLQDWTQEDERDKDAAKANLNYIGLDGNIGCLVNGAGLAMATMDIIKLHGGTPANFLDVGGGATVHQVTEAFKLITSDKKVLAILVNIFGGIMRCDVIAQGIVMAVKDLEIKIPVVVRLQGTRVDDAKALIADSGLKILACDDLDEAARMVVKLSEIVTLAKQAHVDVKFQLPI
T4 sequence (P53597 28-333): as the sequence (P53597 28-333) above
T4 sequence (Q96I99 38-420): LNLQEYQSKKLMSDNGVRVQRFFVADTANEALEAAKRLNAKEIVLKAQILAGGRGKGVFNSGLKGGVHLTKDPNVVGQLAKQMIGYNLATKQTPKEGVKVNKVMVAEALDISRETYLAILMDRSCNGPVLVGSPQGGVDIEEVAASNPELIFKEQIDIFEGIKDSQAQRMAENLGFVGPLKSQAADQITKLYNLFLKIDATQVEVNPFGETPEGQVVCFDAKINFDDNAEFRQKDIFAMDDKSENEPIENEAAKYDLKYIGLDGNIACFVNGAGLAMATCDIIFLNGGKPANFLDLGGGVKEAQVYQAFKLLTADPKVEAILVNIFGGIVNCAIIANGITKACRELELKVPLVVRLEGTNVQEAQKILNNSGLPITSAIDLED

**Q.** With `CC(=O)SCCNC(=O)CCNC(=O)[C@H](O)C(C)(C)COP(=O)(O)OP(=O)(O)OC[C@H]1O[C@@H](n2cnc3c(N)ncnc32)[C@H](O)[C@@H]1OP(=O)(O)O` [ACoA, acetyl-CoA] as the compound, how does the inhibition at 100 µM (citrate synthase (CS)) read?
**A.** The inhibition at 100 µM was ~30%.

**Q.** With `C/C1=C2/[N-][C@H]([C@H](CC(N)=O)[C@@]2(C)CCC(=O)NC[C@@H](C)OP(=O)([O-])O[C@H]2C(O)[C@@H](n3cnc4cc(C)c(C)cc43)O[C@@H]2CO)[C@]2(C)N=C(/C(C)=C3N=C(/C=C4N=C1[C@@H](CCC(N)=O)C\4(C)C)[C@@H](CCC(N)=O)[C@]\3(C)CC(N)=O)[C@@H](CCC(N)=O)[C@]2(C)CC(N)=O.[CH2-][C@H]1O[C@@H](n2cnc3c(N)ncnc32)[C@H](O)[C@@H]1O.[Co+3]` (stereo partly shown) [AdoCbl, adenosylcobalamin] as the compound, how does the “absorbance spectrum of loaded enzyme” value [1] read?
**A.** The value was “conversion of the MCM-bound adenosylcobalamin into cob(II)alamin”.

**Q.** Which KM (CLYBL) does the source give for `CC(C)(COP(=O)(O)OP(=O)(O)OC[C@H]1O[C@@H](n2cnc3c(N)ncnc32)[C@H](O)[C@@H]1OP(=O)(O)O)[C@@H](O)C(=O)NCCC(=O)NCCSC(=O)C[C@H](O)C(=O)O` [malyl-CoA] here?
**A.** The KM was “CLYBL actively hydrolyzed malyl-CoA into malate and free CoASH”.

**Q.** What about the remaining activity at 50 µM [2] of the same compound?
**A.** Its remaining activity at 50 µM is < 10%.

**Q.** Which Km [3] does the source give for `O=C(O)CCC(=O)O` [succinate] here?
**A.** The Km was 0.25 ± 0.03 mM.

**Q.** What about the Km [4] of the same compound?
**A.** Its Km is 6.3 ± 1.9 mM.

**Q.** `C=C(CC(=O)SCCNC(=O)CCNC(=O)[C@H](O)C(C)(C)COP(=O)(O)OP(=O)(O)OC[C@H]1O[C@@H](n2cnc3c(N)ncnc32)[C@H](O)[C@@H]1OP(=O)(O)O)C(=O)O` [itaconyl-CoA] was tested. Which relative activity [5] did it give?
**A.** The relative activity was “Both acyl-CoAs induced a dose-dependent inhibition of MCM (Fig. 5a)”.

Reference: article doi:10.1101/2024.09.25.614871v2, “CLYBL averts methylmalonyl-CoA mutase inhibition and loss of vitamin B12 by repairing malyl-CoA” (biorxiv, 2024)
